We go through 13 compounds from US10501421B1, “Substituted benzimidazoles as modulators of Ras signaling” (VANDERBILT UNIVERSITY, priority 2017, dated 2019).

In assay [1] the target is Ras GEF SOS (Son of Sevenless) (Homo sapiens, UniProt Q07889). Briefly: SOS-mediated nucleotide exchange on Ras (BODIPY-GDP fluorescence). It is filed as biochemical. Conditions: SOS-mediated exchange of BODIPY-GDP for GTP on Ras. An outline of the steps: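 Exchange rates were taken from single-exponential fits of the fluorescence time course as BODIPY-GDP on Ras was replaced by GTP. Compound went in first, then GTP and SOS. Mean rates plotted against concentration gave EC50 by four-parameter dose-response fitting.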

In the next assay the target is T1, Son of Sevenless (SOS) (Homo sapiens, UniProt Q07889).
T1 sequence (Q07889 564-1049 limits assumed): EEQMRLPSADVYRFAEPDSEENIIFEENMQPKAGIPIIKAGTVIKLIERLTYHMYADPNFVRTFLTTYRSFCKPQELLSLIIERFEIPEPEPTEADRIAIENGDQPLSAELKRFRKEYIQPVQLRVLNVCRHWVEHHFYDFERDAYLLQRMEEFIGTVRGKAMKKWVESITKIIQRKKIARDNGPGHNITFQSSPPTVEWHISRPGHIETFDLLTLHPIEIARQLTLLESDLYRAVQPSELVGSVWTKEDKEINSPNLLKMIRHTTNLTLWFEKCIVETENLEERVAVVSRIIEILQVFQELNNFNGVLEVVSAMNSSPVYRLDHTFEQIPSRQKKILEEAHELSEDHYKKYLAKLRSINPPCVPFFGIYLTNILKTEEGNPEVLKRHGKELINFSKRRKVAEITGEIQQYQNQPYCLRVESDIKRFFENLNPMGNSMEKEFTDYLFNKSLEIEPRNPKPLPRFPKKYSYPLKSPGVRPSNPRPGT
As to the kind of experiment: Binding to SOS, fluorescence polarization anisotropy (FPA) probe displacement. To be noted: displacement of FITC-conjugated probe (Example 285), affinity calculated from IC50. The procedure:
Compounds of the present invention were tested for their ability to bind to the Ras guanine exchange factor (GEF) Son of Sevenless (SOS). Binding to SOS was measured using a Fluorescence polarization anisotropy (FPA) assay that assesses the ability of a test compound to displace a fluorescent FITC-conjugated compound (Example 285). Briefly, the labeled probe compound is incubated with SOS in buffer. Changes in anisotropy indicative of displacement of the labeled probe for a test compound are assessed over a dose range of test compound. Data was analyzed by plotting fluorescence anisotropy values as a function of compound concentration. IC50 values were determined using a four-parameter dose-response (variable slope) and binding affinities were calculated from this IC50 value. This assay is performed in a method analogous to the assay disclosed in: Burns, M. C.; Sun, Q.; Daniels, R. N.; Camper, D. V.; Kennedy, J. P.; Phan, J.; Olejniczak, E. O.; Lee, T.; Waterson, A. G.; Rossanese, O. W.; Fesik, S. W. “Approach for targeting Ras with small molecules that activate SOS-mediated nucleotide exchange” Proc. Natl. Acad. Sci. 2014; 11(9): 3401-3406. PMCID: PMC3948241.

The structures appear in SMILES notation. Where a name gives a salt, the structure may show the parent alone.

Chain of Ras GEF SOS (Son of Sevenless) (P01112 1-166 partner limits assumed, one chain of several): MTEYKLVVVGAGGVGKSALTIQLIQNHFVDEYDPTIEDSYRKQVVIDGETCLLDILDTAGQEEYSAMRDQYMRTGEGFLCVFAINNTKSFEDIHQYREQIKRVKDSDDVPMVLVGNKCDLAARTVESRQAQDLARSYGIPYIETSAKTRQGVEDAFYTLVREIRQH

`Cc1cc2nc(N3CCNCC3)n(Cc3ccc(F)c(C(F)(F)F)c3)c2cc1C` [Example 40, 1-(4-fluoro-3-(trifluoromethyl)benzyl)-5,6-dimethyl-2-(piperazin-1-yl)-1H-benzo[d]imidazole trifluoracetate] displayed an EC50 in assay [1] of 5 to 30 µM. Moreover, the Ki at Son of Sevenless (SOS) was above 5 µM.

In the case of `Cc1cc2nc(N3CCNCC3)n(Cc3cc(C)c(F)c(C)c3)c2cc1C` [Example 41, 1-(4-fluoro-3,5-dimethylbenzyl)-5,6-dimethyl-2-(piperazin-1-yl)-1H-benzo[d]imidazole trifluoroacetate], the EC50 in assay [1] was in the range of 1 to 5 µM. On Son of Sevenless (SOS), the Ki is above 5 µM.

On to `Cc1cc2nc(NCCN)n(Cc3cc(C)c(F)c(C)c3)c2cc1C` [Example 42, N^1-(1-(4-fluoro-3,5-dimethylbenzyl)-5,6-dimethyl-1H-benzo[d]imidazol-2-yl)ethane-1,2-diamine trifluoroacetate], for which the EC50 in assay [1] was in the range of 1 to 5 µM. In addition, at Son of Sevenless (SOS), the Ki was 1 to 5 µM.

In assay [1], `Cc1cc2nc(NCCCN)n(Cc3cc(C)c(F)c(C)c3)c2cc1C` [Example 43, N^1-(1-(4-fluoro-3,5-dimethylbenzyl)-5,6-dimethyl-1H-benzo[d]imidazol-2-yl)propane-1,3-diamine trifluoroacetate] returned an EC50 of 5 to 30 µM. For the same compound, the inhibition constant (Ki) on Son of Sevenless (SOS) was above 5 µM.

`Cc1cc2nc(NCCN(C)C)n(Cc3cc(C)c(F)c(C)c3)c2cc1C` [Example 44, N^1-(1-(4-fluoro-3,5-dimethylbenzyl)-5,6-dimethyl-1H-benzo[d]imidazol-2-yl)-N^2,N^2-dimethylethane-1,2-diamine trifluoroacetate]: in assay [1], the EC50 is 5 to 30 µM. The Ki at Son of Sevenless (SOS) was above 5 µM.

On to `CNCCN(C)c1nc2cc(C)c(C)cc2n1Cc1cc(C)c(F)c(C)c1` [Example 45, N^1-(1-(4-fluoro-3,5-dimethylbenzyl)-5,6-dimethyl-1H-benzo[d]imidazol-2-yl)-N^1,N^2-dimethylethane-1,2-diamine trifluoroacetate], for which, in assay [1], the EC50 is 5 to 30 µM. Further, the inhibitory constant (Ki) on Son of Sevenless (SOS) was above 5 µM.

`Fc1ccc(Cn2c(C3CCNCC3)nc3ccccc32)cc1` [Example 56, 1-(4-fluorobenzyl)-2-(piperidin-4-yl)-1H-benzo[d]imidazole trifluoroacetate]: the EC50 in assay [1] fell in the range of 5 to 30 µM. Also, the Ki at Son of Sevenless (SOS) was above 5 µM.

In assay [1], `Clc1ccc(Cn2c(C3CCNCC3)nc3ccccc32)cc1` [Example 58, 1-(4-chlorobenzyl)-2-(piperidin-4-yl)-1H-benzo[d]imidazole trifluoroacetate] returned an EC50 of 5 to 30 µM. Moreover, the Ki at Son of Sevenless (SOS) was above 5 µM.

The compound `Cc1ccc2nc(N3CCNCC3)n(Cc3ccc(F)c(Cl)c3)c2c1` [Example 61, 1-(3-chloro-4-fluorobenzyl)-6-methyl-2-(piperazin-1-yl)-1H-benzo[d]imidazole trifluoroacetate] yielded a 50% effective concentration (EC50) in assay [1] of 1 to 5 µM. Besides, the Ki on Son of Sevenless (SOS) is 1 to 5 µM.

In the case of `Fc1ccc(Cn2c(N3CCNCC3)nc3ccc(C4CC4)cc32)cc1Cl` [Example 62, 1-(3-chloro-4-fluorobenzyl)-6-cyclopropyl-2-(piperazin-1-yl)-1H-benzo[d]imidazole trifluoroacetate], in assay [1], the half-maximal effective concentration (EC50) fell in the range of 5 to 30 µM. For the same compound, at Son of Sevenless (SOS), the Ki is above 5 µM.

`Fc1ccc(Cn2c(N3CCNCC3)nc3ccc(Br)cc32)cc1Cl` [Example 63, 6-bromo-1-(3-chloro-4-fluorobenzyl)-2-(piperazin-1-yl)-1H-benzo[d]imidazole trifluoroacetate] came in with an EC50 in assay [1] below 1 µM. Also, the Ki on Son of Sevenless (SOS) is 0.5 to 1 µM.

For the compound `Cc1cc2nc(NCCN)n(Cc3ccc(F)c(Cl)c3)c2cc1Br` [Example 64, N^1-(6-bromo-1-(3-chloro-4-fluorobenzyl)-5-methyl-1H-benzo[d]imidazol-2-yl)ethane-1,2-diamine trifluoroacetate], the EC50 in assay [1] fell in the range of 1 to 5 µM. Also, at Son of Sevenless (SOS), the Ki was 0.5 to 1 µM.

In assay [1], `C=Cc1cc2c(cc1C)nc(NCCN)n2Cc1ccc(F)c(Cl)c1` [Example 65, N^1-(1-(3-chloro-4-fluorobenzyl)-5-methyl-6-vinyl-1H-benzo[d]imidazol-2-yl)ethane-1,2-diamine trifluoroacetate] gave an EC50 of 1 to 5 µM. In addition, the Ki at Son of Sevenless (SOS) is 1 to 5 µM.

One may read the EC50 as the midpoint of the concentration-response curve. Read a low EC50 as higher potency in that assay. As a reminder, the Ki is a dissociation constant, usually derived from enzyme kinetics or from competition with a known ligand.
